The source of these data is US8492372B2, “Modulators of dopamine neurotransmission” (Integrated Research Laboratories Sweden AB, priority 2008, dated 2013).

Data set [1] has as its system DOPAC (3,4-dihydroxyphenylacetic acid) in the rat striatum. The data set can be described thus: Increase of DOPAC in the rat striatum after systemic administration (in vivo neurochemistry). To be noted: estimated ED50 on increase of DOPAC in rat striatum, curve fit, range in brackets covers 95% of fits; for ED50: Rattus norvegicus, sc; for ED50 DOPAC: s.c. The text has this:
After the behavioural activity sessions, the rats are decapitated and their brains rapidly taken out and put on an ice-cold petri-dish. The limbic forebrain, the striatum, the frontal cortex and the remaining hemispheral parts of each rat are dissected and frozen. Each brain part is subsequently analyzed with respect to its content of monoamines and their metabolites.
The monoamine transmitter substances (NA (noradrenaline), DA (dopamine), 5-HT (serotonin)) as well as their amine (NM (normethanephrine), 3-MT (3-methoxytyramine)) and acid (DOPAC (3,4-dihydroxyphenylacetic acid), 5-HIAA (5-hydroxyindoleacetic acid), HVA (homovanillic acid)) metabolites are quantified in brain tissue homogenates by HPLC separations and electrochemical detection.
The analytical method is based on two chromatographic separations dedicated for amines or acids. Two chromatographic systems share a common auto injector with a 10-port valve and two sample loops for simultaneous injection on the two systems. Both systems are equipped with a reverse phase column (Luna C18(2), dp 3 μm, 50*2 mm i.d., Phenomenex) and electrochemical detection is accomplished at two potentials on glassy carbon electrodes (MF-1000, Bioanalytical Systems, Inc.). The column effluent is passed via a T-connection to the detection cell or to a waste outlet. This is accomplished by two solenoid valves, which block either the waste or detector outlet. By preventing the chromatographic front from reaching the detector, better detection conditions are achieved. The aqueous mobile phase (0.4 ml/min) for the acid system contains citric acid 14 mM, sodium citrate 10 mM, MeOH 15% (v/v) and EDTA 0.1 mM. Detection potentials relative to Ag/AgCl reference are 0.45 and 0.60V. The aqueous ion pairing mobile phase (0.5 ml/min) for the amine system contains citric acid 5 mM, sodium citrate 10 mM, MeOH 9% (v/v), MeCN 10.5% v/v), decane sulfonic acid 0.45 mM, and EDTA 0.1 mM. Detection potentials relative to Ag/AgCl reference are 0.45 and 0.65V.
ED50 values for the increase of DOPAC in striatum are calculated by curve fitting.

The subject of data set [2] is Locomotor activity in drug-naive rats. The data set can be described thus: Locomotor activity in drug-naive rats (in vivo behaviour). More on the design: species or system rat. To be noted: recorded for 60 minutes immediately after drug administration. The source says: Photobeam sensors are spaced 2.5 cm apart.
In data set [3] the test system is amphetamine-induced hyper-locomotion. The data set can be described thus: Reduction of amphetamine-induced hyper-locomotion (in vivo behaviour). To be noted: range in brackets covers 95% of fits; for ED50: Rattus norvegicus, read-out: ED50 reduction of amphetamine-induced hyper-locomotion, rats pre-treated with d-amphetamine 1.5 mg/kg i.p., test compound s.c., curve fit.

Structures can show the parent of a compound that is named as a salt.

Turning to `CCCNCC1OCc2c(F)cc(Br)cc2O1` (centres unmarked) [Example 16, N-[(7-BROMO-5-FLUORO-4H-1,3-BENZODIOXIN-2-YL)METHYL]PROPAN-1-AMINE], the ED50 in data set [1] is 20 µmol/kg. Further, the values for the Locomotor activity in data set [2] (3.7 μmol/kg), in data set [2] (11 μmol/kg) and in data set [2] (33 μmol/kg) were 8637 ± 1217 counts/60 min ± SEM, 7537 ± 2127 counts/60 min ± SEM and 7393 ± 1395 counts/60 min ± SEM, respectively.

On to `CCCNCC1OCc2cc(F)c(S(C)(=O)=O)cc2O1` (centres unmarked) [Example 20, N-{[6-FLUORO-7-(METHYLSULFONYL)-4H-1,3-BENZODIOXIN-2-YL]METHYL}PROPAN-1-AMINE], for which, in data set [1], the ED50 was 11 µmol/kg. For the same molecule, the Locomotor activity in data set [2] (3.7 μmol/kg) is 8830 ± 1277 counts/60 min ± SEM; in data set [2] (11 μmol/kg) it was 10181 ± 1385 counts/60 min ± SEM; in data set [2] (33 μmol/kg), 5502 ± 474 counts/60 min ± SEM.

As for `CCCNCC1OCc2c(F)cc(S(C)(=O)=O)cc2O1` (centres unmarked) [Example 17, N-{[5-FLUORO-7-(METHYLSULFONYL)-4H-1,3-BENZODIOXIN-2-YL]METHYL}PROPAN-1-AMINE], in data set [1], the ED50 is 8.6 µmol/kg. The Locomotor activity in data set [2] (3.7 μmol/kg) is given as 10520 ± 1381 counts/60 min ± SEM; in data set [2] (11 μmol/kg) it was 8330 ± 2194 counts/60 min ± SEM; in data set [2] (33 μmol/kg), 3319 ± 140 counts/60 min ± SEM.

Usually melting point stands for the temperature, or range, at which the solid turns liquid. Consider `CCCNCC1OCc2ccc(C(F)(F)F)cc2O1` (centres unmarked) (as salt: hydrochloric acid salt) [Example 1, N-{[7-(TRIFLUOROMETHYL)-4H-1,3-BENZODIOXIN-2-YL]METHYL}PROPAN-1-AMIN], for which the melting point was determined as 203 °C.

`CCCNCC1OCc2ccc(S(C)(=O)=O)cc2O1` (centres unmarked) (as salt: hydrochloric acid salt) [Example 3, N-{[7-(METHYLSULFONYL)-4H-1,3-BENZODIOXIN-2-YL]METHYL}PROPAN-1-AMINE]: the melting point was 213 °C.

`O=S(=O)(c1ccc2c(c1)OC(CN1CCCC1)OC2)C(F)(F)F` (centres unmarked) (as salt: fumaric acid salt) [Example 7, 1-({7-[(TRIFLUOROMETHYL)SULFONYL]-4H-1,3-BENZODIOXIN-2-YL}METHYL)PYRROLIDINE] returned a melting point of 184 °C.

`CS(=O)(=O)c1ccc2c(c1)OC(CN1CCCCC1)OC2` (centres unmarked) [Example 21, 1-{[7-(METHYLSULFONYL)-4H-1,3-BENZODIOXIN-2-YL]METHYL}PIPERIDINE]: the figures for the ED50 in data set [1] and in data set [3] were 13 µmol/kg and 14 µmol/kg, respectively. Also, the Locomotor activity is on record as 8285 ± 721 counts/60 min ± SEM in data set [2] (3.7 μmol/kg), 6585 ± 707 counts/60 min ± SEM in data set [2] (11 μmol/kg) and 4197 ± 923 counts/60 min ± SEM in data set [2] (33 μmol/kg).

`CNCC1OCc2ccc(S(C)(=O)=O)cc2O1` (centres unmarked) (as salt: hydrochloric acid salt) [Example 12, N-METHYL-1-[7-(METHYLSULFONYL)-4H-1,3-BENZODIOXIN-2-YL]METHANAMINE] returned a melting point of 225 °C.

Regarding `O=S(=O)(c1ccc2c(c1)OC(CN1CCCC1)OC2)C(F)(F)F` (centres unmarked) [Example 7, 1-({7-[(TRIFLUOROMETHYL)SULFONYL]-4H-1,3-BENZODIOXIN-2-YL}METHYL)PYRROLIDINE], the ED50 was 48 µmol/kg in data set [1] and 50 µmol/kg in data set [3]. Besides, the Locomotor activity in data set [2] (3.7 μmol/kg) was 9548 ± 1455 counts/60 min ± SEM; in data set [2] (11 μmol/kg), 7270 ± 278 counts/60 min ± SEM; in data set [2] (33 μmol/kg) it was 11818 ± 2775 counts/60 min ± SEM.

`CCCNCC1OCc2cc(F)c(Br)cc2O1` (centres unmarked) (as salt: hydrochloric acid salt) [Example 19, N-[(7-BROMO-6-FLUORO-4H-1,3-BENZODIOXIN-2-YL)METHYL]PROPAN-1-AMINE] returned a melting point of 182 °C.

For `CCCNCC1OCc2ccc(S(C)(=O)=O)cc2O1` (single isomer, unassigned; (-)) [Example 4, (−)-N-{[7-(METHYLSULFONYL)-4H-1,3-BENZODIOXIN-2-YL]METHYL}PROPAN-1-AMINE], in data set [1], the “ED50 DOPAC” value is given as 27 (23-31) μmol/kg. Besides, the “ED50 reduction of amphetamine-induced hyper-locomotion” value in data set [3] (rats pre-treated with d-amphetamine 1.5 mg/kg i.p., test compound s.c., curve fit) is listed as 27 (19-35) μmol/kg. The figures for the Locomotor activity in data set [2] (3.7 μmol/kg), in data set [2] (11 μmol/kg) and in data set [2] (33 μmol/kg) were 9158 ± 2094 counts/60 min ± SEM, 11153 ± 1257 counts/60 min ± SEM and 12588 ± 331 counts/60 min ± SEM, respectively.

Take `CCCNCC1OCc2ccc(C(F)(F)F)cc2O1` (centres unmarked) [Example 1, N-{[7-(TRIFLUOROMETHYL)-4H-1,3-BENZODIOXIN-2-YL]METHYL}PROPAN-1-AMIN]: the ED50 in data set [1] was 17 µmol/kg; in data set [3], 3.9 µmol/kg. The Locomotor activity in data set [2] (3.7 μmol/kg) is reported as 8038 ± 1487 counts/60 min ± SEM; in data set [2] (11 μmol/kg), 7279 ± 968 counts/60 min ± SEM; in data set [2] (33 μmol/kg), 2682 ± 802 counts/60 min ± SEM.

`CCNCC1OCc2ccc(S(=O)(=O)C(F)(F)F)cc2O1` (centres unmarked) (as salt: hydrochloric acid salt): the melting point stood at 169 °C.

On to `CCCNCC1OCc2c(F)cc(Br)cc2O1` (centres unmarked) (as salt: oxalic acid salt) [Example 16, N-[(7-BROMO-5-FLUORO-4H-1,3-BENZODIOXIN-2-YL)METHYL]PROPAN-1-AMINE], for which the melting point worked out at 215 °C.

As for `CCCNCC1OCc2ccc(S(=O)(=O)C(F)(F)F)cc2O1` (centres unmarked) [Example 8, N-({7-[(TRIFLUOROMETHYL)SULFONYL]-4H-1,3-BENZODIOXIN-2-YL}METHYL)PROPAN-1-AMINE], the ED50 in data set [1] is 7 µmol/kg; in data set [3], 4.9 µmol/kg. Besides, the values for the Locomotor activity in data set [2] (3.7 μmol/kg), in data set [2] (11 μmol/kg) and in data set [2] (33 μmol/kg) were 11601 ± 583 counts/60 min ± SEM, 7064 ± 1032 counts/60 min ± SEM and 2641 ± 757 counts/60 min ± SEM, respectively.

In turn, `CCCNCC1OCc2ccc(S(=O)(=O)C(F)(F)F)cc2O1` (centres unmarked) (as salt: hydrochloric acid salt) [Example 8, N-({7-[(TRIFLUOROMETHYL)SULFONYL]-4H-1,3-BENZODIOXIN-2-YL}METHYL)PROPAN-1-AMINE] yielded a melting point of 201 °C.

`CCCNCC1OCc2ccc(S(C)(=O)=O)cc2O1` (single isomer, unassigned; (+)) [Example 5, (+)-N-{[7-(METHYLSULFONYL)-4H-1,3-BENZODIOXIN-2-YL]METHYL}PROPAN-1-AMINE]: the “ED50 DOPAC” value in data set [1] was 12 (9.3-14) μmol/kg. In addition, the ED50 in data set [3] stood at 15 µmol/kg. For the same molecule, the Locomotor activity was 9173 ± 3160 counts/60 min ± SEM in data set [2] (3.7 μmol/kg), 8274 ± 801 counts/60 min ± SEM in data set [2] (11 μmol/kg) and 4854 ± 771 counts/60 min ± SEM in data set [2] (33 μmol/kg).
